According to US20060167094A1, “Satiety agent” (priority 2005, published 2006):

Key:
plasma GLP-1 = assay: Plasma GLP-1 concentrations by radioimmunoassay; format: in vivo, human
Method: (§1) Once the catheter was positioned correctly, fasting motility was monitored until the occurrence of phase III of the interdigestive migrating motor complex (MMC). Immediately after the cessation of phase III activity [at time t=−15 min], a baseline venous blood sample was taken, and a visual analog scale questionnaire (VAS) (see Measurements), assessing appetite-related sensations, was administered. At t=0 min (i.e., during phase I of the MMC), the duodenal infusion of 1) C12, 2) C10, or 3) control solution was commenced and continued for 90 min. APD pressures were monitored throughout the infusion period; blood samples were taken, and the VAS administered every 15 min from t=0 min until t=90 min. At t=90 min, the infusion was terminated, and the subject was immediately extubated and offered a cold buffet-style meal, the composition of which is provided in Table 1. The amount of food offered was in excess of what the subject was expected to consume. The subject was given 30 min (i.e., t=90 min to t=120 min) to consume the meal and instructed to eat until comfortably full. After ingestion of the meal, the subject was monitored for a further 30 min, a further VAS was completed, and blood samples were taken at t=120 and 150 min. The intravenous cannula was then removed, and the subject was allowed to leave the laboratory.
Venous blood samples (10 ml) were collected in ice-chilled EDTA-treated tubes containing 400 kIU aprotinin (Trasylol, Bayer Australia) per millilitre of blood. Plasma was separated by centrifugation (3,200 rpm, 15 min, 4° C.) within 30 min of collection and stored at −70° C. until assayed.
Plasma GLP-1 concentrations (in pmol/l) were measured by radioimmunoassay using an adaptation of a previously published method (4) Antibody, supplied by Prof. […] It is likely that this antibody also reacts with the degraded form of GLP-1(9-36) amide. Intra-assay CV was 17% and interassay CV was 18%, with a sensitivity of 1.5 pmol/l.

[1] = at similar concentrations; cited from earlier work
[2] = cited from earlier work
[3] = Energy intake from the buffet meal after intraduodenal infusion; format: in vivo, human
Method: (§2) Each subject was studied on three occasions, separated by 3-10 days, to evaluate, in a double-blind, randomized fashion, the effects of intraduodenal infusions of 1) C12, 2) C10, or 3) control solution for 90 min on appetite perceptions, energy intake, APD pressures, and plasma CCK and GLP-1 concentrations.
as §1
Energy intake from the buffet meal [energy consumption (in kJ) and macronutrient distribution (in % and g energy)] was analyzed using commercially available software (Food works 3.0, Xyris Software; Highgate Hill, Queensland, Australia). The time taken to finish the meal (in min) was also evaluated.

CCK secretion = details: gastric infusion, humans; cited from earlier work
[4] = Appetite perceptions (VAS scores) during and after 90 min intraduodenal infusion; format: in vivo, human
Method: as §2, §1
Appetite sensations and energy intake. Subjective sensations of appetite, including hunger, fullness, desire to eat, prospective consumption (“how much food do you think you could eat if you were given a meal now?”), were assessed using validated VASs (Sensations of nausea and bloating were also assessed. Each VAS evaluated a sensation on a 100-mm horizontal line, where 0 represented “sensation is not felt at all” and 100 represented “sensation is felt the greatest.” Subjects were asked to place a vertical stroke on the 100-mm line in relation to what they were feeling at that particular point in time.
Baseline (“0”) values were calculated as the mean of values obtained at t=−15 and 0 min for VAS scores and plasma hormone concentrations and between t=−15 to 0 min for basal pyloric pressures, number, and amplitude of IPPWs, antral and duodenal PWs, and total number of duodenal PWSs. Basal pyloric pressures and the number and amplitude of IPPWs were expressed as means over 15-min segments during the 90-min infusion period. Numbers and amplitudes of antral and duodenal PWs were expressed as total number and mean values, respectively, for the 90-min infusion period. Duodenal PWSs were expressed as the total number of waves travelling over two, three, four, five, six, and seven channels during the 90-min infusion period. All data, except for plasma CCK and GLP-1 concentrations, were expressed as changes from baseline.
VAS scores, basal pyloric pressures, number and amplitude of IPPWs, and plasma hormone concentrations were analyzed by repeated-measures mixed model analysis of covariance (ANCOVA), with baseline as the covariate and time (0-90 min, at 15-min intervals) and treatment as within-subject factors. One-way ANOVA was used to assess the effect of treatment on energy intake, time taken to complete eating, total numbers and mean amplitudes of antral and duodenal PWs, and total number of duodenal PWSs. A logarithmic transformation was applied to nausea scores, antral amplitudes, and duodenal PWSs travelling 7.5 and 9 cm to better address the underlying assumptions of the models used (as these variables lacked normal distribution). If significance or near significance ([…]) was found, post hoc comparisons of least-squares means using Student's t-tests were performed. […]

[5] = buffet meal, compared with control
[6] = during 90 min intraduodenal infusion, 0.375 kcal/min, compared with control

## CCCCCCCCCCCC(=O)O [C12, lauric acid]
Plasma GLP-1; after the start of infusion
  delay until plasma GLP-1 concentrations rose: 30 min
Plasma GLP-1; during infusion, C12 effect from 30 to 90 min
  plasma GLP-1 concentrations compared with control: increased plasma GLP-1
Plasma GLP-1; from 45 to 90 min
  plasma GLP-1 concentrations compared with C10: increased plasma GLP-1
Plasma GLP-1; t=120 and 150 min, compared with control
  plasma GLP-1 concentrations after meal ingestion: higher after the C12 infusion compared with both control
Plasma GLP-1; versus level after ingestion of ~4,528 kJ
  GLP-1 level higher than after ingestion of the buffet meal after the control infusion: 40%
[1]
  cytotoxicity relative to C18:1: half as cytotoxic as C18:1
[2]; 0.36 kcal/min
  adverse effects of perfusion into human duodenum: without adverse effects
[2]; in vivo
  rate of emptying from the human stomach: 0.375 kcal/min
[3]; after 90 min intraduodenal infusion 0.375 kcal/min, compared with control
  energy intake at buffet meal: dramatically decreased energy intake compared with control
[3]; all subjects, C12 total energy delivered 141 kJ
  reduction of energy intake compared with the control infusion: ~2,857 kJ
[3]; [5]
  amount of energy (in g) ingested from carbohydrate: reduced
  amount of energy (in g) ingested from fat: reduced
  amount of energy (in g) ingested from protein: reduced
[3]; isoenergetic amounts, intraduodenal, humans
  potency as suppressant of energy intake relative to C18:1: more potent suppressant of energy intake
[3]; mean±SE, not statistically significant
  time at which eating from the buffet meal was completed: 13 ± 3.5 min
[3]; non-nauseated subjects
  energy intake in the absence of nausea: inhibited energy intake in the absence of nausea
[3]; subjects that did not experience nausea
  magnitude of the reduction in energy intake: ~1,801 kJ
[3]; subjects who reported nausea
  magnitude of the reduction in energy intake: ~3,840 kJ
CCK secretion
  stimulation of CCK secretion: reported to stimulate CCK secretion
[4]; at 120 and 150 min, after the buffet meal
  fullness (VAS) after meal ingestion: less after C12 than C10
[4]; by 120 min (infusion terminated at 90 min)
  mean score for nausea after termination of infusion: close to baseline
[4]; during 90 min intraduodenal infusion, 0.375 kcal/min
  scores for bloating (VAS): increased the scores for bloating
[4]; [6]
  nausea scores (VAS): increased nausea scores compared with control
  scores for hunger (VAS): lower compared with control
  scores for prospective consumption (VAS): lower compared with control
[4]; during 90 min intraduodenal infusion, 0.375 kcal/min, healthy males, compared with control
  scores for desire to eat (VAS): lower compared with control
[4]; during C12 infusion 0.375 kcal/min, randomized study of 8 subjects
  subjects reporting nausea: Five of the eight
